The source of these data is PMC3157426 (PLoS ONE, 2011).

Several values for one entry are separate records, joined by “and”; a condition that tells them apart may be missing. Identical values can stand only once. Like-named read-outs stand apart in the source and are kept apart here.

Experiment [1] addresses A/Mississippi/03/01 H1N1 wild type NA (Influenza A virus, UniProt Q289M4). The class given is biochemical, influenza virus A/Mississippi/03/01 H1N1.
Experiment [2] has as its target A/Fukui/45/04 H3N2 wild type NA (Influenza A virus, UniProt C0IZY2). The class given is biochemical, influenza virus A/Fukui/45/04 H3N2.
Experiment [3] deals with clade 1 H5N1 virus from Vietnam N1 NA (Influenza A virus, UniProt Q6DPL2). The class given is biochemical, avian influenza H5N1 clade 1 (Vietnam).
In experiment [4] the target is H1N1 pandemic influenza virus A/Swine/Shepparton/2009 NA (Influenza A virus, UniProt I6NQT4). The experiment can be described thus: biochemical. The class given is biochemical, influenza virus A/Swine/Shepparton/2009 pandemic H1N1.
Experiment [5] deals with clade 2 H5N1 virus from Indonesia N1 NA (Influenza A virus, UniProt Q6R2G6). The class given is biochemical, avian influenza H5N1 clade 2 (Indonesia).
For experiment [6], the target named is B/Perth/211/01 influenza B wild type NA (Influenza B virus, UniProt Q3S340). The class given is biochemical, influenza B virus B/Perth/211/01.
The test system of a further experiment is N2 NA. The note with it: cited from earlier work.
Setting [7] is: read-out: IC50 at 10 min, 30' Pre.
Where [8] appears, read: read-out: IC50 at 10 min, No pre.
Where [9] appears, read: read-out: final IC50 after 60 min, 30' pre.
Setting [10] is: read-out: final IC50 after 60 min, No pre.
Where [11] appears, read: read-out: IC50 on relative slope, Rates time interval 30-40.
Setting [12] is: read-out: IC50 on relative slope, Rates time interval 40-50.
[13] abbreviates: read-out: IC50 on relative slope, Rates time interval 50-60.

On to `CC(=O)N[C@H]1[C@H]([C@H](O)[C@H](O)CO)OC(C(=O)O)=C[C@@H]1O` [DANA, 2-deoxy,2,3-dehydro N-acetyl neuraminic acid], for which the “binding phenotype (slow or fast binding)” value in experiment [1], in experiment [2], in experiment [3], in experiment [4], in experiment [5] and in experiment [6] was “fast binding” each time.

Broadly, the IC50 is the concentration that inhibits the measured activity by half. Consider `CCC(CC)[C@H](NC(C)=O)[C@@H]1[C@H](O)[C@@H](C(=O)O)C[C@H]1N=C(N)N` [Peramivir, peramivir], for which the “10'/60 (ratio of IC50s), No pre” value in experiment [1] was 6.5; in experiment [2] it was 8.7; in experiment [3], 6.6; in experiment [4], 5.1; in experiment [5], 7.0; in experiment [6], 9.3. The “60'/10 (ratio of IC50s), 30' Pre” value in experiment [1] stood at 1.4; in experiment [2], 1.3; in experiment [3], 1.3; in experiment [4] it was 1.5; in experiment [5], 1.4; in experiment [6] it was 1.5. The “No pre/pre (ratio of 60 min IC50s)” value in experiment [1] is reported as 8.2; in experiment [2] it was 9.0; in experiment [3] it was 21.0; in experiment [4], 7.1; in experiment [5], 9.3; in experiment [6], 9.8. Further, the IC50 in experiment [1] (setting [7]) amounted to 0.3 nM; in experiment [1] (setting [8]), 20.2 nM; in experiment [1] (setting [9]), 0.4 nM; in experiment [1] (setting [10]), 3.1 nM; in experiment [2] (setting [7]), 1 nM; in experiment [2] (setting [8]) it was 103 nM. Also, the IC50 in experiment [2] (setting [9]) came out at 1.3 nM; in experiment [2] (setting [10]), 11.9 nM; in experiment [3] (setting [7]) it was 0.2 nM; in experiment [3] (setting [8]), 40.9 nM; in experiment [3] (setting [9]), 0.3 nM; in experiment [3] (setting [10]), 6.2 nM. Besides, the IC50 turned out to be 0.2 nM in experiment [4] (setting [7]); 10.1 nM in experiment [4] (setting [8]); 0.3 nM in experiment [4] (setting [9]); 2 nM in experiment [4] (setting [10]); 0.4 nM in experiment [5] (setting [7]); 37.7 nM in experiment [5] (setting [8]). In addition, the IC50 in experiment [5] (setting [9]) is 0.6 nM; in experiment [5] (setting [10]), 5.4 nM; in experiment [6] (setting [7]) it was 1.9 nM; in experiment [6] (setting [8]), 259 nM; in experiment [6] (setting [9]), 2.8 nM; in experiment [6] (setting [10]), 27.8 nM.

`CC(=O)N[C@H]1[C@H]([C@H](O)[C@H](O)CO)OC(C(=O)O)=C[C@@H]1N=C(N)N` [Zanamivir, zanamivir]: the IC50 came out at 0.5 nM in experiment [4] (IC50 at 10 min, 30' Pre); 29.5 nM in experiment [4] (IC50 at 10 min, No pre); 1.4 nM in experiment [4] (final IC50 after 60 min, 30' pre); 5.8 nM in experiment [4] (final IC50 after 60 min, No pre). Moreover, in the experiment with N2 NA, the “variation of the apparent Ki depending on the incubation conditions” value was 10,000 fold.

As to oseltamivir carboxylate, the IC50 in experiment [1] (setting [7]) was 0.5 nM; in experiment [1] (setting [8]), 12.2 nM; in experiment [1] (read-out: IC50 on relative slope, Rates time interval 20-30) it was 6.2 nM and 3.9 nM; in experiment [1] (setting [11]), 6.7 nM and 4.6 nM; in experiment [1] (setting [12]), 6.8 nM and 5 nM; in experiment [1] (setting [13]) it was 7.9 nM and 5.6 nM. For the same compound, the IC50 in experiment [1] (setting [9]) is 3.1 nM; in experiment [1] (setting [10]), 7.3 nM; in experiment [2] (setting [7]), 0.5 nM; in experiment [2] (setting [8]) it was 30.4 nM; in experiment [2] (setting [11]), 3.8 nM and 2.5 nM; in experiment [2] (setting [12]), 3.8 nM and 3.3 nM. Moreover, the IC50 in experiment [2] (setting [13]) was 3.4 nM; in experiment [2] (setting [9]), 1.7 nM; in experiment [2] (setting [10]), 5.3 nM; in experiment [4] (setting [7]) it was 0.5 nM; in experiment [4] (setting [8]), 15.8 nM; in experiment [4] (setting [9]), 5.1 nM. Moreover, the IC50 stood at 6.8 nM in experiment [4] (setting [10]); 0.9 nM in experiment [5] (setting [7]); 28.3 nM in experiment [5] (setting [8]); 19.6 nM in experiment [5] (setting [9]); 21.4 nM in experiment [5] (setting [10]). Also, in experiment [2], the “binding phenotype (slow or fast binding)” value is on record as “slow binding phenotype”.
